Data: patent CN105663037A, “一种阿莫西林溶液剂及其制备方法和用途” (Chengdu Qiankun Veterinary Pharmaceutical Co Ltd, priority 2016, dated 2016)

Key:
[1] = in vivo, cited from earlier work
[2] = Selection of mixed solvent (Table 4); type: physicochemical
[3] = cited from earlier work

What does the source list for `CC1(C)S[C@@H]2[C@H](NC(=O)[C@H](N)c3ccc(O)cc3)C(=O)N2[C@H]1C(=O)O` [阿莫西林]?
gastrointestinal absorption rate ([1]; po): 90%; half-life [1]: ~1.02 h; dissolution when amount of dimethyl sulfoxide is reduced ([2]; 25 g amoxicillin, less than 100 ml dimethyl sulfoxide): 不能完全溶解; volume of dimethyl sulfoxide required to dissolve 25 g amoxicillin as stable solution ([2]; from results of 2.2 and 2.3): 100 mL; stability under acidic conditions [3]: 稳定
